The results in this text go back to PMC10949195, “Exponential Combination of a and e/g Intracellular Peptide Libraries Identifies a Selective ATF3 Inhibitor” (ACS Chemical Biology, 2024).

The target of one experiment is T1, ATF3 (Homo sapiens, UniProt P18847).
T1 construct: We focus on the selective targeting of the ATF3 leucine zipper dimerization domain using intracellular peptide library screening; made in house; host or cells: chemical solid-phase peptide synthesis (no expression host)
T1 sequence (P18847 110-143): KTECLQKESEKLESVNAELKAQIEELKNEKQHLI
Put plainly: CD thermal denaturation of peptide mixed 1:1 with ATF3. It is filed as binding. Conditions: peptide incubated with ATF3; CD signal at 222 nm, 1 °C increments; 150 μM total peptide; 10 mM potassium phosphate, 100 mM potassium fluoride, pH 7.0; two-state denaturation model. The source says:
Following the observed significant increase in global secondary structure content for the ATF3-ATF3W_aeg complex relative to component peptides (Figure 6), we next analyzed the stability of the complex by undertaking thermal denaturation experiments (Figure 7). […] Moreover, consistent with spectral data, the clear increase from the average profile of the component peptides relative to that of the measured is most pronounced in the combined construct (Figure 7, red hash vs black). This provides robust additional evidence for a preferential interaction between ATF3 and ATF3W_aeg that is improved over either the core a or electrostatic e/g constructs.
Shown are thermal stabilities of peptide pairs measured via temperature dependence of the CD signal at 222 nm. The thermal denaturation profiles for (a) ATF3-ATF3W_a, (b) ATF3-ATF3W_eg, and (c) ATF3-ATF3W_aeg show a substantial increase in the transition midpoint (Tm = 59 °C) relative to component peptides (black vs red hash). Experiments were performed in 10 mM potassium phosphate and 100 mM potassium fluoride (pH 7.0). All spectra were recorded at 1 °C increments at a total peptide concentration of 150 μM and fitted to a two-state denaturation model.
Thermal denaturation experiments were performed at 150 μM total protein concentration in 10 mM potassium phosphate and 100 mM potassium fluoride, pH 7, using an Applied Photophysics Chirascan CD instrument (Leatherhead, UK) as previously described.[23]

The test system of experiment [1] is M2 macrophages differentiated from the human THP-1 monocytic cell line. Put plainly: THP-1 polarization assay and CCL-4 ELISA. The format is cell-based. Conditions: M2 macrophages from THP-1 (IL-4 polarized); 20 μM peptide with NLS-TAT appendage; 48 h; versus untreated. The source says: ATF3 is a transcriptional repressor that regulates both the extent and duration of pro-inflammatory gene expression.[17] Specifically, ATF3 has been implicated in the transcriptional repression of chemokines including chemokine (C–C motif) ligand 4 (CCL4),[18] also known as macrophage inflammatory protein (MIP-1β), which promotes recruitment of additional immune cells to inflamed tissues. In the context of cancer, ATF3 activity counters antitumor immunity and promotes tumor growth. We therefore explored the effect of the ATF3W-aeg antagonist peptide on CCL4 expression in M2 anti-inflammatory macrophages differentiated from the human THP-1 monocytic cell line. […]
Figure 10 ATF3W-aeg peptide stimulates expression of pro-inflammatory cytokine in M2 macrophages. CCL4 protein levels were measured by ELISA from supernatants of M2 macrophage cultures treated with either 20 μM ATF3W-aeg or negative control peptide (****p < 0.0001). […]
THP-1 cells were seeded in 12-well format at a concentration of 5 × 10^5 cells/well and treated with 7.5 ng/mL Phorbol 12-Myristate 13-Acetate (PMA, Sigma-Aldrich) in RPMI media supplemented with 10% FBS and 55 μM β-mercaptoethanol (BME). […] After 48 h, supernatants were collected and clarified by centrifugation, and the CCL-4 concentration was assessed by ELISA (MIP-1b Human Instant ELISA Kit, ThermoFisher Scientific) according to the manufacturer’s protocol.
For orientation: ELISA stands for enzyme-linked immunosorbent assay.

In another experiment the target is T2, ATF3W_aeg (synthetic construct).
T2 chain: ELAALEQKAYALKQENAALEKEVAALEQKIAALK
Nature of the experiment: ITC. On the technique in general: In ITC the heat of successive injections is recorded.

With “EAAALEQKIYALKQEAAALEKEIAALEQKAAALK [ATF3W_eg]”, the “transition midpoint (Tm) of heterodimer with ATF3” value at ATF3 was determined as 52 °C. Same read-out and setting: the figure for “QLAALQQQAYALQQQNAALQKQVAALQQQIAALQ [ATF3W_a]” is 26 °C. As to “Ac-KAAALKQKAYALKQQIAALKKQVAALKQKIAALKPKKKRKVYGRKKRRQRRR-NH2 [Fra1W-NLS TAT, reference compound]”, the “effect on CCL4 expression (protein in supernatant, ELISA)” value in experiment [1] was “no effect”.

Usually Kd stands for the constant that tells how readily two partners part at equilibrium. High values mean weaker binding, low ones tighter binding. Molecule TECLQKESEKLESVNAELKAQIEELKNEKQHLIYM [ATF3 leucine zipper] gave a Kd with ATF3W_aeg of 151 nM.
